# Where two headings read alike, the source gives them in different places.
# Assays:
# [1] = system: Methicillin Resistant Staphylococcus aureus strain USA 300, NRS384; assay: Minimum inhibitory concentration, broth micro-dilution (CLSI), S. aureus; format: cell-based; conditions: Staphylococcus aureus, MRSA / NRS 384 / USA300, 22 h, 35° C., 22 hours
# Procedure, shortened: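 CLSI broth microdilution in cation-adjusted Mueller Hinton Broth with 0.002% Tween-80; inoculum final OD600 0.0005, 22 hours at 35° C. Ten 2-fold dilutions starting at 4 μg/mL (protocol 2) or 0.5 μg/mL (protocol 3).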
# [2] = system: Escherichia coli ATCC 25922; assay: Minimum inhibitory concentration, broth micro-dilution (CLSI), E. coli; format: cell-based; conditions: Escherichia coli, ATCC25922, 22 h, 35° C., 22 hours
# [3] = molecular target: T1, SpsB (Staphylococcus aureus signal peptidase) (Staphylococcus aureus, UniProt P0A070); assay: cell-based; format: biochemical; conditions: SpsB IC50, whole-cell S. aureus (USA300 background, overexpressing SpsB) as SpsB source; fluorogenic peptide substrate, kinetic read 30 min
# T1 construct: This assay uses a suspension of Staphylococcus aureus cells as a source of SpsB instead of recombinant SpsB protein; endogenous in cells; host or cells: S. aureus, USA300 background, overexpressing SpsB (whole-cell suspension from frozen pellets)
# T1 sequence (P0A070 whole entry): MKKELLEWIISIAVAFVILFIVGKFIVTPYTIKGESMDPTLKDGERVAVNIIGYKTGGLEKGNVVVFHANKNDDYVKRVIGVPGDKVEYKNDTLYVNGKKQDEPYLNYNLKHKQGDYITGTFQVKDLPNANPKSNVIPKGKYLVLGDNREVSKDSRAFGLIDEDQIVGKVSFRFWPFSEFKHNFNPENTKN
# Procedure, shortened: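 Cleavage of an internally quenched (Dabcyl)βAla-KPAKAAE(Edans) peptide, added as 20 μM solution mixed 1:1 with cells, was followed for 30 min at 340/490 nm. SpsB came from a suspension of SpsB-overexpressing USA300 S. aureus in Tween-80-containing PBS buffer. Slopes plotted against 3-fold compound dilutions gave IC50.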
# [4] = system: Escherichia coli MC4100 harboring the IMP4213 (E. coli IMP); assay: microbe, parasite or virus in culture; format: cell-based; conditions: Escherichia coli, 22 h, read-out: MIC (μg/mL) E. coli IMP, E. coli MC4100 IMP4213, increased outer-membrane permeability; 35° C., 22 hours
# Procedure, shortened: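 Top conc 4 μg/mL (protocol 2) or 0.5 μg/mL (protocol 3), 2-fold series, 10 points. Final OD600 0.0005; 22 h, 35° C. IMP4213 = permeable outer membrane.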
# [5] = MRSA USA 300 NRS384, read-out: MIC (μg/mL) S. aureus
# [6] = E. coli ATCC 25922, read-out: MIC (μg/mL) E. coli
# [7] = read-out: MIC (μg/mL) S. aureus, MRSA USA 300 NRS384
# [8] = read-out: MIC (μg/mL) E. coli, E. coli ATCC 25922
SMILES,"MIC [1, 5] [µg/mL]","MIC [2, 6] [µg/mL]",IC50 [3] [nM],MIC [4] [µg/mL],"MIC [1, 7] [µg/mL]","MIC [2, 8] [µg/mL]"
CCCCCCCCc1ccc(C(=O)N[C@@H](CCN)C(=O)N(C)[C@@H]2C(=O)N[C@@H](C)C(=O)N[C@H](C(=O)NCC#N)Cc3ccc(OCCN)c(c3)-c3cc2ccc3OCCN)c(C)c1 [Compound 339],0.047,0.13,< 0.5,0.018,,
CCCCc1ccc(-c2ccc(C(=O)N[C@@H](CN)C(=O)N(C)[C@@H]3C(=O)N[C@@H](C)C(=O)N[C@H](C(=O)NCC#N)Cc4ccc(OCCN)c(c4)-c4cc3ccc4OCCN)cc2)cc1 [Compound 341],0.13,0.5,1.1,0.031,,
CCCCCCCCCCCCCC(=O)N[C@@H](CN)C(=O)N(C)[C@@H]1C(=O)N[C@@H](C)C(=O)N[C@H](C(=O)N[C@@H](C)C#N)Cc2ccc(OCCN)c(c2)-c2cc1ccc2OCCN [Compound 342],0.19,0.5,1.3,0.063,,
CCCCCCCCCCCCCC(=O)N[C@@H](CN)C(=O)N(C)[C@@H]1C(=O)N[C@@H](C)C(=O)N[C@H](C(=O)NCC#N)Cc2ccc(OCCN)c(c2)-c2cc1ccc2OCCN [Compound 343],0.094,0.25,0.73,0.063,,
CCCCCCCCc1ccc(C(=O)N[C@@H](CN)C(=O)N(C)[C@@H]2C(=O)N[C@@H](C)C(=O)N[C@H](C(=O)NCC#N)Cc3ccc(OCCN)c(c3)-c3cc2ccc3OCCN)cc1 [Compound 344],0.094,0.38,1,0.036,,
CCCCCCCCS(=O)(=O)N[C@@H](CO)C(=O)N(C)[C@@H]1C(=O)N[C@@H](C)C(=O)N[C@H](C(=O)NCC#N)Cc2ccc(OCCN)c(c2)-c2cc1ccc2OCCN [Compound 345],,,2.2,2,0.5,> 64
CCCCCCCCCCS(=O)(=O)N[C@@H](CCN)C(=O)N(C)[C@@H]1C(=O)N[C@@H](C)C(=O)N[C@H](C(=O)NCC#N)Cc2ccc(OCCN)c(c2)-c2cc1ccc2OCCN [Compound 346],0.031,8,0.7,0.063,,
CCCCCCCCCCNCCS(=O)(=O)N[C@@H](CCO)C(=O)N(C)[C@@H]1C(=O)N[C@@H](C)C(=O)N[C@H](C(=O)NCC#N)Cc2ccc(OCCN)c(c2)-c2cc1ccc2OCCN [Compound 348],,,0.8,1,0.055,> 64
CCCCCCCCCCNCCS(=O)(=O)N[C@@H](CCN)C(=O)N(C)[C@@H]1C(=O)N[C@@H](C)C(=O)N[C@H](C(=O)NCC#N)Cc2ccc(OCCN)c(c2)-c2cc1ccc2OCCN [Compound 350],0.016,4,1,0.063,,
CCCCCCCCCC(=O)N[C@H](CCC)C(=O)N[C@@H](CCN)C(=O)N(C)[C@@H]1C(=O)N[C@@H](C)C(=O)N[C@H](C(=O)NCC#N)Cc2ccc(OCCN)c(c2)-c2cc1ccc2OCCN [Compound 353],,,0.82,0.016,0.047,2
CCCCc1ccc(C(=O)N[C@H](CCC)C(=O)N[C@@H](CCN)C(=O)N(C)[C@@H]2C(=O)N[C@@H](C)C(=O)N[C@H](C(=O)NCC#N)Cc3ccc(OCCN)c(c3)-c3cc2ccc3OCCN)c(C)c1 [Compound 354],,,1.8,0.063,0.25,8
CCCCc1ccc(C(=O)N[C@@H](CCC)C(=O)N[C@@H](CCN)C(=O)N(C)[C@@H]2C(=O)N[C@@H](C)C(=O)N[C@H](C(=O)NCC#N)Cc3ccc(OCCN)c(c3)-c3cc2ccc3OCCN)c(C)c1 [Compound 355],,,1.1,0.031,0.13,4
CCCCCCCCCC(=O)N[C@@H](CO)C(=O)N[C@@H](CCN)C(=O)N(C)[C@@H]1C(=O)N[C@@H](C)C(=O)N[C@H](C(=O)NCC#N)Cc2ccc(OCCN)c(c2)-c2cc1ccc2OCCN [Compound 360],,,1.2,0.31,0.22,24
CCCCCCCCCC(=O)N[C@H](C)C(=O)NCC(=O)N[C@@H](CCN)C(=O)N(C)[C@@H]1C(=O)N[C@@H](C)C(=O)N[C@H](C(=O)NCC#N)Cc2ccc(OCCN)c(c2)-c2cc1ccc2OCCN [Compound 366],,,0.64,0.38,0.25,48
CCCCCCCCCC(=O)NCCC(=O)N[C@@H](CCN)C(=O)N(C)[C@@H]1C(=O)N[C@@H](C)C(=O)N[C@H](C(=O)NCC#N)Cc2ccc(OCCN)c(c2)-c2cc1ccc2OCCN [Compound 367],0.094,12,0.88,0.13,,
CCCCCCCCCNC(=O)CCC(=O)N[C@@H](CCN)C(=O)N(C)[C@@H]1C(=O)N[C@@H](C)C(=O)N[C@H](C(=O)NCC#N)Cc2ccc(OCCN)c(c2)-c2cc1ccc2OCCN [Compound 369],0.063,4,0.47,0.063,,
CCCCc1ccc(C(=O)NCC(=O)N[C@@H](CCN)C(=O)N(C)[C@@H]2C(=O)N[C@@H](C)C(=O)N[C@H](C(=O)NCC#N)Cc3ccc(OCCN)c(c3)-c3cc2ccc3OCCN)c(C)c1 [Compound 370],,,1.1,0.13,0.19,16
CCCCc1ccc(C(=O)NCC(=O)NCC(=O)N[C@@H](CCN)C(=O)N(C)[C@@H]2C(=O)N[C@@H](C)C(=O)N[C@H](C(=O)NCC#N)Cc3ccc(OCCN)c(c3)-c3cc2ccc3OCCN)c(C)c1 [Compound 371],,,1.3,0.5,0.25,32
CCCCCCCCCC(=O)NCC(=O)N[C@@H](CCN)C(=O)N(C)[C@@H]1C(=O)N[C@@H](C)C(=O)N[C@H](C(=O)NCC#N)Cc2ccc(OCCN)c(c2)-c2cc1ccc2OCCN [Compound 372],,,0.47,0.094,0.13,8
CCCCCCCCCC(=O)N[C@@H](C)C(=O)N[C@@H](CCN)C(=O)N(C)[C@@H]1C(=O)N[C@@H](C)C(=O)N[C@H](C(=O)NCC#N)Cc2ccc(OCCN)c(c2)-c2cc1ccc2OCCN [Compound 373],,,0.88,0.063,0.19,4
